Consider 22 molecules from PubChem BioAssay AID296 (DTP/NCI, 2004).

Each structure is given as a SMILES string. “And” between values parts separate entries of the source, which are not always exact repeats. Identical values can stand only once. Results filed as inconclusive are left out.

This assay deals with MX-1 breast xenograft, nude mice, tumor weight T/C. Put plainly: NCI In Vivo Anticancer Drug Screen. Data for tumor model Human Mammary Carcinoma MX-1 Xenograft (intrarenal inoculation) in NU/NU Swiss (nude) mice. The note with it: endpoint: mean tumor weight change, higher = larger tumour. The procedure, abridged:
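Tumor-bearing mice were treated with test compound alongside a vehicle-treated control group. Survival or tumor size was measured, and activity is expressed as the treated-group value divided by the control-group value.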
A general note: In xenograft studies the graft and the host belong to different species.

The mark [1] stands for this setting: dose: 50.0 mg/kg/injection, schedule: Q01DX010 (sc), vehicle: saline.
Setting [2] is: dose: 100.0 mg/kg/injection, schedule: Q01DX010 (sc), vehicle: saline.
The mark [3] stands for this setting: dose: 200.0 mg/kg/injection, schedule: Q01DX010 (sc), vehicle: saline.
Setting [4] is: dose: 1.0 mg/kg/injection, schedule: Q01DX010 (sc), vehicle: saline.
Setting [5] is: dose: 6.25 mg/kg/injection, schedule: Q01DX010 (sc), vehicle: saline.
Setting [6] is: dose: 25.0 mg/kg/injection, schedule: Q01DX010 (sc), vehicle: saline.
[7] abbreviates: dose: 75.0 mg/kg/injection, schedule: Q04DX003 (sc), vehicle: saline.
[8] abbreviates: dose: 150.0 mg/kg/injection, schedule: Q04DX003 (sc), vehicle: saline.
Where [9] appears, read: dose: 300.0 mg/kg/injection, schedule: Q04DX003 (sc), vehicle: saline with Tween-80.
Setting [10] is: dose: 600.0 mg/kg/injection, schedule: Q04DX003 (sc), vehicle: saline with Tween-80.
Where [11] appears, read: dose: 1200.0 mg/kg/injection, schedule: Q04DX003 (sc), vehicle: saline with Tween-80.

With `O=CC(CO)CC(C=O)n1cnc2c(=O)[nH]cnc21` (centres undefined), the T/C is, setting by setting: (dose: 150.0 mg/kg/injection, schedule: Q04DX003 (ip), vehicle: saline) 62 % of control; (dose: 300.0 mg/kg/injection, schedule: Q04DX003 (ip), vehicle: saline) 57 % of control; (dose: 600.0 mg/kg/injection, schedule: Q04DX003 (ip), vehicle: saline) 30 % of control.

For the molecule `O=C([O][Bi]([c]1ccccc1)[c]1ccccc1)c1ccccc1`, the T/C reads like this: (dose: 25.0 mg/kg/injection, schedule: Q04DX003 (ip), vehicle: Klucel (hydroxypropylcellulose) (HPC)) 91 % of control; (dose: 50.0 mg/kg/injection, schedule: Q04DX003 (ip), vehicle: Klucel (hydroxypropylcellulose) (HPC)) 78 % of control; (dose: 100.0 mg/kg/injection, schedule: Q04DX003 (ip), vehicle: Klucel (hydroxypropylcellulose) (HPC)) 64 % of control.

In the case of `C[C@]12CCC(=O)C(O)=C1CC[C@@H]1[C@@H]2CC[C@]2(C)C(=O)CC[C@@H]12`, the T/C (dose: 35.0 mg/kg/injection, schedule: Q01DX010 (sc), vehicle: Klucel (hydroxypropylcellulose) (HPC)) is 223 % of control; the T/C (dose: 70.0 mg/kg/injection, schedule: Q01DX010 (sc), vehicle: Klucel (hydroxypropylcellulose) (HPC)) is 112 % of control; the T/C (dose: 280.0 mg/kg/injection, schedule: Q01DX010 (sc), vehicle: Klucel (hydroxypropylcellulose) (HPC)) was 88 % of control.

For the molecule `ClCCCN1CCN(CCCl)CC1`, the T/C (dose: 7.5 mg/kg/injection, schedule: Q04DX003 (sc), vehicle: saline) was 8 % of control and 10 % of control and 31 % of control.

Consider `Cc1ccccc1N(CC1CO1)CC1CO1` (centres undefined), for which the T/C by setting is: under setting [1], 54 % of control; under setting [2], 91 % of control; under setting [3], 89 % of control; (dose: 400.0 mg/kg/injection, schedule: Q01DX010 (sc), vehicle: saline) 56 % of control; (dose: 800.0 mg/kg/injection, schedule: Q01DX010 (sc), vehicle: suspension in saline) 111 % of control.

`O=C1NC(O)CCN1C1OC(CO)C(O)C1O` (centres undefined): the T/C is 111 % of control (dose: 200.0 mg/kg/injection, schedule: Q01DX010 (sc), vehicle: water); 112 % of control (dose: 400.0 mg/kg/injection, schedule: Q01DX010 (sc), vehicle: water); 79 % of control (dose: 800.0 mg/kg/injection, schedule: Q01DX010 (sc), vehicle: water); 103 % of control (dose: 1600.0 mg/kg/injection, schedule: Q01DX010 (sc), vehicle: water).

`O=NNc1ccccn1`: the T/C runs as follows: under setting [4], 78 % of control; (dose: 2.0 mg/kg/injection, schedule: Q01DX010 (sc), vehicle: saline) 86 % of control; (dose: 3.13 mg/kg/injection, schedule: Q01DX010 (sc), vehicle: saline) 20 % of control; (dose: 4.0 mg/kg/injection, schedule: Q01DX010 (sc), vehicle: saline) 163 % of control; under setting [5], 50 % of control and 72 % of control; (dose: 8.0 mg/kg/injection, schedule: Q04DX003 (sc), vehicle: saline) 103 % of control. Besides, the T/C is 1 % of control under setting [6] and -87 % of control (dose: 64.0 mg/kg/injection, schedule: Q01DX010 (sc), vehicle: saline).

In the case of `Clc1ccc2nnnn2n1`, the T/C is, setting by setting: (dose: 100.0 mg/kg/injection, schedule: Q04DX003 (sc), vehicle: saline with Tween-80) 173 % of control; (dose: 200.0 mg/kg/injection, schedule: Q04DX003 (sc), vehicle: saline with Tween-80) 95 % of control.

Take `COc1ccc2c(c1)CCn1c(C)c(COC(=O)NC(C)C)c(COC(=O)NC(C)C)c1-2`: the T/C runs as follows: (dose: 150.0 mg/kg/injection, schedule: Q04DX003 (sc), vehicle: distilled water + Tween-80) 6 % of control; (dose: 300.0 mg/kg/injection, schedule: Q04DX003 (sc), vehicle: distilled water + Tween-80) 3 % of control; (dose: 600.0 mg/kg/injection, schedule: Q04DX003 (sc), vehicle: distilled water + Tween-80) -100 % of control; (dose: 1200.0 mg/kg/injection, schedule: Q04DX003 (sc), vehicle: distilled water + Tween-80) -100 % of control.

Turning to `CC[N+](CC)(CC)CC`, the T/C (dose: 1.5 mg/kg/injection, schedule: Q01DX010 (sc), vehicle: saline with Tween-80) is 65 % of control and the T/C (dose: 3.0 mg/kg/injection, schedule: Q01DX010 (sc), vehicle: saline with Tween-80) was 103 % of control.

Turning to `CC[C@]1(O)C[C@H]2CN(CCc3c([nH]c4ccccc34)[C@@](C(=O)OC)(c3cc4c(cc3OC)N(C=O)[C@H]3[C@@](O)(C(=O)OC)[C@H](OC(C)=O)[C@]5(CC)C=CCN6CC[C@]43[C@@H]65)C2)C1`, the T/C is -100 % of control and -81 % of control (dose: 0.5 mg/kg/injection, schedule: Q01DX010 (sc), vehicle: saline); -99 % of control under setting [4].

As for `C[C@@H]1C[C@@H]([C@H](O)CC2CC(=O)NC(=O)C2)C(=O)[C@@H](C)C1`, the T/C (dose: 37.5 mg/kg/injection, schedule: Q04DX003 (sc), vehicle: saline) is 105 % of control; the T/C under setting [7] was 69 % of control; the T/C under setting [8] is 97 % of control.

Take `CC1(c2ccc(Cl)cc2)OC(=O)C(=Cc2ccc([N+](=O)[O-])s2)C(=O)O1` (centres undefined): the T/C reads like this: under setting [9], 122 % of control; under setting [10], 44 % of control; under setting [11], 26 % of control.

For `c1ccc(CN2CCOC2)cc1`, the T/C was 60 % of control under setting [6], 78 % of control under setting [1], 70 % of control under setting [2] and 47 % of control under setting [3].

On to `CN(C)C(=O)c1cccc(COc2ccc(N3C(N)=NC(N)=NC3(C)C)cc2Cl)c1`, for which the T/C reads like this: under setting [5], 104 % of control; (dose: 12.5 mg/kg/injection, schedule: Q01DX010 (sc), vehicle: saline) 118 % of control; under setting [6], 49 % of control.

Regarding `CS(=O)(=O)OCCCNCCCOS(C)(=O)=O`, the T/C is, setting by setting: (dose: 18.75 mg/kg/injection, schedule: Q04DX003 (sc), vehicle: saline) 61 % of control; under setting [7], 6 % of control and 7 % of control; under setting [8], 1 % of control.

In the case of `C(=N/NC1=NCCN1)/c1c2ccccc2c(/C=N\NC2=NCCN2)c2ccccc12`, the T/C is 11 % of control and 25 % of control (dose: 75.0 mg/kg/injection, schedule: Q04DX003 (sc), vehicle: suspension in saline); 17 % of control and 18 % of control (dose: 150.0 mg/kg/injection, schedule: Q04DX003 (sc), vehicle: suspension in saline).

As for `CC1(C)OC1CS(=O)c1ccccc1` (centres undefined), the T/C under setting [10] was 121 % of control.

In the case of `COC(=O)C(F)C(Br)C(=O)OC` (centres undefined), the T/C is, setting by setting: (dose: 18.75 mg/kg/injection, schedule: Q04DX003 (sc), vehicle: saline with Tween-80) 52 % of control; (dose: 37.5 mg/kg/injection, schedule: Q04DX003 (sc), vehicle: saline with Tween-80) 49 % of control; (dose: 75.0 mg/kg/injection, schedule: Q04DX003 (sc), vehicle: saline with Tween-80) 59 % of control.

Consider `COc1cccc2c1C(=O)c1c(O)c3c(c(O)c1C2=O)C[C@@](O)(C(=O)COC(=O)c1cccnc1)C[C@@H]3OC1CC(N)C(O)C(C)O1` (some centres undefined), for which the T/C (dose: 6.0 mg/kg/injection, schedule: Q04DX003 (sc), vehicle: saline) is 52 % of control and 58 % of control; the T/C (dose: 12.0 mg/kg/injection, schedule: Q04DX003 (sc), vehicle: saline) was 15 % of control and 26 % of control; the T/C (dose: 24.0 mg/kg/injection, schedule: Q04DX003 (sc), vehicle: saline) was 20 % of control.

For `CCCCCCCC(=O)N/N=C(\CO)[C@]1(O)Cc2c(O)c3c(c(O)c2[C@@H](OC2CC(N)C(O)C(C)O2)C1)C(=O)c1c(OC)cccc1C3=O` (some centres undefined), the T/C (dose: 25.0 mg/kg/injection, schedule: Q01DX010 (sc), vehicle: water) was 227 % of control; the T/C (dose: 50.0 mg/kg/injection, schedule: Q01DX010 (sc), vehicle: water) was 230 % of control; the T/C (dose: 100.0 mg/kg/injection, schedule: Q01DX010 (sc), vehicle: water) is 370 % of control.

Take `CC(=O)OCC1(C)NC(=O)c2ccccc2O1` (centres undefined): the T/C was 108 % of control under setting [9]; 108 % of control under setting [10]; 156 % of control under setting [11]; 85 % of control (dose: 2400.0 mg/kg/injection, schedule: Q04DX003 (sc), vehicle: saline with Tween-80).
